Among the data in patent publication US6972296B2, “Carboxylic acid derivatives that inhibit the binding of integrins to their receptors” (Encysive Pharmaceuticals Inc., priority 1999, dated 2005) are IC50 values, retold here.

What is called IC50 is the midpoint of a concentration-inhibition curve.

The assay addresses T1, α4β1 integrin (Homo sapiens, UniProt P05556+P13612).
T1 construct: endogenous in cells; host or cells: Ramos cells
Briefly: Adhesion of calcein-labeled Ramos cells to CS1 (fibronectin) peptide conjugated ovalbumin. Format: cell-based. As to conditions: Ramos cell adhesion to CS1 conjugated ovalbumin. Summed up:
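Calcein AM-labelled Ramos cells (2.5×10^5/well) with compound, up to 100 μM, added to plates coated with CS1 peptide–ovalbumin (0.5 μg/ml) and blocked with 3% BSA. Binding buffer TBS pH 7.5 with 1 mM each MgCl2, CaCl2, MnCl2; 30 min, 37 °C. After washes, adherent cells lysed and read fluorometrically; […].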

Where [1] appears, read: Table 5, dose required to give 50% inhibition.
The mark [2] stands for this setting: Table 7, dose required to give 50% inhibition.

T1 sequence (P13612 34-1032): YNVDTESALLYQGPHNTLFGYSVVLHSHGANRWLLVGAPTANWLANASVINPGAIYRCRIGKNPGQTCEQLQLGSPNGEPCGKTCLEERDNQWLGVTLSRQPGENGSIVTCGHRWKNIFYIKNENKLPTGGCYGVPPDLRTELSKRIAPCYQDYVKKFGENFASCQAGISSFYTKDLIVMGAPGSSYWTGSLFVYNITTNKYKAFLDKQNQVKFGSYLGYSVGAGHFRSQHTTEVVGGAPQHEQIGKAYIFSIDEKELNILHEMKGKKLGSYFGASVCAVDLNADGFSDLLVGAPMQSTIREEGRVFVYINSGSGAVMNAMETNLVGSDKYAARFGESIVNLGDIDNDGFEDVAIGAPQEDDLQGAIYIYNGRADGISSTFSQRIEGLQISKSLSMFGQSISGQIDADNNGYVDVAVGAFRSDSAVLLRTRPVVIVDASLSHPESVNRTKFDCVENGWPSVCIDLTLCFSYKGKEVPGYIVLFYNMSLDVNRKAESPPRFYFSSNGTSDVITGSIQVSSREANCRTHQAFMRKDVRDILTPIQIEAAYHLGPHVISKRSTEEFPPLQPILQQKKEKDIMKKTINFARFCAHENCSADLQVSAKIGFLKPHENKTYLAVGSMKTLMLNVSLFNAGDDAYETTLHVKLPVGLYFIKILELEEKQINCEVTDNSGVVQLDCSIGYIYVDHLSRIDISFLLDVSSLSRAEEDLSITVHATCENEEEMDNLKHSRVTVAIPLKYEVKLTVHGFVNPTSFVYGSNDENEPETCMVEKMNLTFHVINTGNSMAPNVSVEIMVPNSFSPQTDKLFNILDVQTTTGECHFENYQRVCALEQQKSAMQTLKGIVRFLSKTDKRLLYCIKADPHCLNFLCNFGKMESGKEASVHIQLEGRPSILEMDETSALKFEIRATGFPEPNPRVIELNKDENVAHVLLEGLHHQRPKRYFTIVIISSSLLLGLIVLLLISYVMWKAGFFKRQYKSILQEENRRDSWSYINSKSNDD
T1 sequence (P05556 21-798): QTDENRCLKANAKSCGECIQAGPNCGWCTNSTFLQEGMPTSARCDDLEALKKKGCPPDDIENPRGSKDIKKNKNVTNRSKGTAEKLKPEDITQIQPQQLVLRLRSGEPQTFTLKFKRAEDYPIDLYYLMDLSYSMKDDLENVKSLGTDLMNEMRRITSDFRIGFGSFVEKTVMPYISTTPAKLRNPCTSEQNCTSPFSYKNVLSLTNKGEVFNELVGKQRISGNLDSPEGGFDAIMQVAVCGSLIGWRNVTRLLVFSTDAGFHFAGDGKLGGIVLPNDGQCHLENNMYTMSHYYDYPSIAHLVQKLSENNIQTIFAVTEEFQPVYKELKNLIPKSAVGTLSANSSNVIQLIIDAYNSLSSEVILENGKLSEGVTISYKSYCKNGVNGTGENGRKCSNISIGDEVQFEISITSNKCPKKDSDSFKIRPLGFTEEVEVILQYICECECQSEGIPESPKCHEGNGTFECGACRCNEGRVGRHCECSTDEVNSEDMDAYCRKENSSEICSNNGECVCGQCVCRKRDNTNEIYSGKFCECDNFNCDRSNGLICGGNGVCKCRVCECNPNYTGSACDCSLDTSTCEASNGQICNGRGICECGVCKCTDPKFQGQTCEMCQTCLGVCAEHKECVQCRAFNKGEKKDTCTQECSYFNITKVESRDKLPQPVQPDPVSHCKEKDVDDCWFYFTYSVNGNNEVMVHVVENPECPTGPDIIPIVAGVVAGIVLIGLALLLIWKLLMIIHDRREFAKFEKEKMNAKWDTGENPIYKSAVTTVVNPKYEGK

For the compound `CCc1cn(Cc2ccccc2Cl)c(=O)c(NC(=O)N[C@@H](CC(=O)O)c2ccc(C)cc2)c1O` [(3S)-3-[({[1-(2-chlorobenzyl)-5-ethyl-4-hydroxy-2-oxo-1,2-dihydropyridin-3-yl]amino}carbonyl)amino]-3-(4-methylphenyl)propanoic acid], the concentration for half-maximal inhibition (IC50) under setting [1] is 10 nM.
The same measure, in the same setting: in the case of `Cc1ccc([C@H](CC(=O)O)NC(=O)Nc2c(O)ccn(Cc3ccccc3C#N)c2=O)cc1` [(3S)-3-[({[1-(2-cyanobenzyl)-4-hydroxy-2-oxo-1,2-dihydropyridin-3-yl]amino}carbonyl)amino]-3-(4-methylphenyl)propanoic acid] it was 9 nM; in that of `Cc1ccc([C@H](CC(=O)O)NC(=O)Nc2c(O)ccn(Cc3ccc(Cl)cc3)c2=O)cc1` [(3S)-3-[({[1-(4-chlorobenzyl)-4-hydroxy-2-oxo-1,2-dihydropyridin-3-yl]amino}carbonyl)amino]-3-(4-methylphenyl)propanoic acid], 7 nM.
Turning to `CCCNc1ccn(Cc2ccccc2Cl)c(=O)c1NC(=O)N[C@@H](CC(=O)O)c1ccc(C)cc1` [(3S)-3-[({[1-[(2-chlorophenyl)methyl]-2-oxo-4-(propylamino)-1,2-dihydro-3-pyridinyl]amino}carbonyl)amino]-3-(4-methylphenyl)propanoic acid], the IC50 (Table 3, 30 minutes at 37° C.) is 10 nM.
On to `CCOc1cccc([C@H](CC(=O)O)NC(=O)Nc2c(O)c(C)nn(Cc3c(Cl)cccc3OCC)c2=O)c1` [(3S)-3-[({[2-(2-chloro-6-ethoxybenzyl)-5-hydroxy-6-methyl-3-oxo-2,3-dihydropyridazin-4-yl]amino}carbonyl)amino]-3-(3-ethoxyphenyl)propanoic acid], for which the concentration for half-maximal inhibition (IC50) under setting [2] is 3 nM.
In the case of `Cc1ccc([C@H](CC(=O)O)NC(=O)Nc2c(CC(C)C)nc(C)n(Cc3ccccc3)c2=O)cc1` [(3S)-3-[({[2-methyl-4-(2-methylpropyl)-6-oxo-1-(phenylmethyl)-1,6-dihydro-5-pyrimidinyl]amino}carbonyl)amino]-3-(4-methylphenyl)propanoic acid], where the note is “Table 3, 30 minutes at 37° C.”, the half-inhibitory concentration (IC50) is 10 nM.
In the case of `Cc1ccc([C@H](CC(=O)O)NC(=O)Nc2cnc(C)n(Cc3ccccc3)c2=O)cc1` [(3S)-3-[({[2-methyl-6-oxo-1-(phenylmethyl)-1,6-dihydro-5-pyrimidinyl]amino}carbonyl)amino]-3-(4-methylphenyl)propanoic acid], the half-inhibitory concentration (IC50) (Table 4, 30 minutes at 37° C.) was 100 nM.
With `Cc1ccc([C@H](CC(=O)O)NC(=O)Nc2c(O)ccn(Cc3ccccn3)c2=O)cc1` [(3S)-3-[({[4-hydroxy-2-oxo-1-(pyridin-2-ylmethyl)-1,2-dihydropyridin-3-yl]amino}carbonyl)amino]-3-(4-methylphenyl)propanoic acid], the half-inhibitory concentration (IC50) under setting [1] is 45 nM.
Take `Cc1ccc([C@H](CC(=O)O)NC(=O)Nc2c(NC(=O)NC(C)(C)C)ccn(Cc3ccccc3Cl)c2=O)cc1` [(3S)-3-[({[4-{[(tert-butylamino)carbonyl]amino}-1-(2-chlorobenzyl)-2-oxo-1,2-dihydropyridin-3-yl]amino}carbonyl)amino]-3-(4-methylphenyl)propanoic acid]: the concentration for half-maximal inhibition (IC50) under setting [1] was 10 nM.
Consider `Cc1ccc([C@H](CC(=O)O)NC(=O)Nc2c(O)c(Cl)cn(Cc3ccccc3Cl)c2=O)cc1` [(3S)-3-[({[5-chloro-1-(2-chlorobenzyl)-4-hydroxy-2-oxo-1,2-dihydropyridin-3-yl]amino}carbonyl)amino]-3-(4-methylphenyl)propanoic acid], for which, under “Table 6, 30 minutes at 37° C.”, the IC50 was 6 nM.
Regarding `Cc1ccc([C@H](CC(=O)O)NC(=O)Nc2cc(Cl)cc(Cc3ccccc3)c2O)cc1` [(3S)-3-[({[5-chloro-2-hydroxy-3-(phenylmethyl)phenyl]amino}carbonyl)amino]-3-(4-methylphenyl)propanoic acid], the IC50 (Table 4, 30 minutes at 37° C.) is 8000 nM.
Regarding `Cc1ccc([C@H](CC(=O)O)NC(=O)Nc2c(NC(=O)C(C)(C)C)ccn(Cc3ccccc3Cl)c2=O)cc1` [(3S)-3-{[({1-(2-chlorobenzyl)-4-[(2,2-dimethylpropanoyl)amino]-2-oxo-1,2-dihydropyridin-3-yl}amino)carbonyl]amino}-3-(4-methylphenyl)propanoic acid], the IC50 under setting [1] is 10 nM.
With `Cc1ccc([C@H](CC(=O)O)NC(=O)Nc2c(O)ccn(Cc3cc(S(C)(=O)=O)ccc3Cl)c2=O)cc1` [(3S)-3-{[({1-[2-chloro-5-(methylsulfonyl)benzyl]-4-hydroxy-2-oxo-1,2-dihydropyridin-3-yl}amino)carbonyl]amino}-3-(4-methylphenyl)propanoic acid], the IC50 under setting [1] is 3 nM.
On the same count and under the same terms, with `Cc1ccc([C@H](CC(=O)O)NC(=O)Nc2c(O)ccn(Cc3cc(C(F)(F)F)ccc3Cl)c2=O)cc1` [(3S)-3-{[({1-[2-chloro-5-(trifluoromethyl)benzyl]-4-hydroxy-2-oxo-1,2-dihydropyridin-3-yl}amino)carbonyl]amino}-3-(4-methylphenyl)propanoic acid] the figure was 10 nM.
As to `Cc1ccc([C@H](CC(=O)O)NC(=O)Nc2c(C)ccn(Cc3ccccc3Br)c2=O)cc1` [(3S)-3-{[({1-[(2-bromophenyl)methyl]-4-methyl-2-oxo-1,2-dihydro-3-pyridinyl}amino)carbonyl]amino}-3-(4-methylphenyl)propanoic acid], the IC50 (Table 3, 30 minutes at 37° C.) was 10 nM.
On to `Cc1ccc([C@H](CC(=O)O)NC(=O)Nc2c(O)ccn(Cc3c(F)cccc3Cl)c2=O)cc1` [(3S)-3-{[({1-[(2-chloro-6-fluorophenyl)methyl]-4-hydroxy-2-oxo-1,2-dihydro-3-pyridinyl}amino)carbonyl]amino}-3-(4-methylphenyl)propanoic acid], for which the IC50 (Table 3, 30 minutes at 37° C.) is 10 nM.
As to `Cc1cccc(Cl)c1Cn1c2c(c(O)c(NC(=O)N[C@@H](CC(=O)O)c3ccc4c(ccn4C)c3)c1=O)CCC2` [(3S)-3-{[({1-[(2-chloro-6-methylphenyl)methyl]-4-hydroxy-2-oxo-2,5,6,7-tetrahydro-1H-cyclopenta[b]pyridin-3-yl}amino)carbonyl]amino}-3-(1-methyl-1H-indol-5-yl)propanoic acid], the IC50 under setting [2] was 3 nM.
Same read-out and setting: in the case of `Cc1cccc(Cl)c1Cn1c2c(c(O)c(NC(=O)N[C@@H](CC(=O)O)c3ccc4[nH]ccc4c3)c1=O)CCC2` [(3S)-3-{[({1-[(2-chloro-6-methylphenyl)methyl]-4-hydroxy-2-oxo-2,5,6,7-tetrahydro-1H-cyclopenta[b]pyridin-3-yl}amino)carbonyl]amino}-3-(1H-indol-5-yl)propanoic acid] it was 2 nM.
On the same count and under the same terms, in the case of `Cc1cccc(Cl)c1Cn1c2c(c(O)c(NC(=O)N[C@@H](CC(=O)O)c3cccc(NS(C)(=O)=O)c3)c1=O)CCC2` [(3S)-3-{[({1-[(2-chloro-6-methylphenyl)methyl]-4-hydroxy-2-oxo-2,5,6,7-tetrahydro-1H-cyclopenta[b]pyridin-3-yl}amino)carbonyl]amino}-3-{3-[(methylsulfonyl)amino]phenyl}propanoic acid] it was 3 nM.
The same measure, in the same setting: with `CCN(c1cccc([C@H](CC(=O)O)NC(=O)Nc2c(O)c3c(n(Cc4c(C)cccc4Cl)c2=O)CCC3)c1)S(C)(=O)=O` [(3S)-3-{[({1-[(2-chloro-6-methylphenyl)methyl]-4-hydroxy-2-oxo-2,5,6,7-tetrahydro-1H-cyclopenta[b]pyridin-3-yl}amino)carbonyl]amino}-3-{3-[ethyl(methylsulfonyl)amino]phenyl}propanoic acid] the figure was 1 nM; with `Cc1cccc(Cl)c1Cn1c2c(c(O)c(NC(=O)N[C@@H](CC(=O)O)c3cccc(N(C)S(C)(=O)=O)c3)c1=O)CCC2` [(3S)-3-{[({1-[(2-chloro-6-methylphenyl)methyl]-4-hydroxy-2-oxo-2,5,6,7-tetrahydro-1H-cyclopenta[b]pyridin-3-yl}amino)carbonyl]amino}-3-{3-[methyl(methylsulfonyl)amino]phenyl}propanoic acid], 1.3 nM.
For `O=C(O)C[C@H](NC(=O)Nc1cccn(Cc2ccccc2Cl)c1=O)c1ccc(O)cc1` [(3S)-3-{[({1-[(2-chlorophenyl)methyl]-2-oxo-1,2-dihydro-3-pyridinyl}amino)carbonyl]amino}-3-(4-hydroxyphenyl)propanoic acid], the IC50 (Table 4, 30 minutes at 37° C.) is 100 nM.
For the compound `Cc1ccc([C@H](CC(=O)O)NC(=O)Nc2c(-c3ccccc3)ccn(Cc3ccccc3Cl)c2=O)cc1` [(3S)-3-{[({1-[(2-chlorophenyl)methyl]-2-oxo-4-phenyl-1,2-dihydro-3-pyridinyl}amino)carbonyl]amino}-3-(4-methylphenyl)propanoic acid], under “Table 3, 30 minutes at 37° C.”, the 50% inhibitory concentration (IC50) was 10 nM.
On the same count and under the same terms, with `Cc1ccc([C@H](CC(=O)O)NC(=O)Nc2c(NC(C)(C)C)ccn(Cc3ccccc3Cl)c2=O)cc1` [(3S)-3-{[({1-[(2-chlorophenyl)methyl]-4-[(1,1-dimethylethyl)amino]-2-oxo-1,2-dihydro-3-pyridinyl}amino)carbonyl]amino}-3-(4-methylphenyl)propanoic acid] the figure was 3 nM.
Consider `CCc1ccn(Cc2ccccc2Cl)c(=O)c1NC(=O)N[C@@H](CC(=O)O)c1ccc(C)cc1` [(3S)-3-{[({1-[(2-chlorophenyl)methyl]-4-ethyl-2-oxo-1,2-dihydro-3-pyridinyl}amino)carbonyl]amino}-3-(4-methylphenyl)propanoic acid], for which the half-inhibitory concentration (IC50) (Table 3, 30 minutes at 37° C.) was 10 nM.
Same read-out and setting: in the case of `Cc1cc(C)cc([C@H](CC(=O)O)NC(=O)Nc2c(O)ccn(Cc3ccccc3Cl)c2=O)c1` [(3S)-3-{[({1-[(2-chlorophenyl)methyl]-4-hydroxy-2-oxo-1,2-dihydro-3-pyridinyl}amino)carbonyl]amino}-3-(3,5-dimethylphenyl)propanoic acid] it was 15 nM.
Same read-out and setting: in the case of `Cc1cccc([C@H](CC(=O)O)NC(=O)Nc2c(O)ccn(Cc3ccccc3Cl)c2=O)c1` [(3S)-3-{[({1-[(2-chlorophenyl)methyl]-4-hydroxy-2-oxo-1,2-dihydro-3-pyridinyl}amino)carbonyl]amino}-3-(3-methylphenyl)propanoic acid] it was 20 nM.
